Laboratory results: US20110118276A1, “METHODS OF TREATING ATHEROSCLEROSIS” (priority 2008, published 2011)
“Also recorded” adds a separate entry of the source.

Columns and labels:
Type in all cases: cell-based, human
HIF-1α protein = HIF-1α protein accumulation, western blot; conditions: foam cells; for antagonism of adenosine induced HIF-1α protein accumulation: antagonist 100 nM, adenosine 100 μM, hypoxia
Experimental: Hypoxic exposures were done in a modular incubator chamber and flushed with a gas mixture containing 1% O2, 5% CO2 and balance N2 (MiniGalaxy, RSBiotech, Irvine, Scotland).
U937 cells were induced to differentiate into macrophages by treatment with phorbol myristate acetate (PMA, 40 nM) for 72 h. […] All dialyses were carried out with Pierce Slide-A-Lyzer cassettes (10,000 molecular weight cut-off).
Whole cell lysates were prepared as described previously (27). […] In experiments aimed to detect HIF, western blot analyses were performed using antibody against HIF-1α (1:250 dilution) and […] (1:1000 dilution) in 5% non-fat dry milk in PBS/0.1°)/0 Tween-20 overnight at 4° C. The protein concentration was determined using BCA protein assay kit (Pierce, Rockford, Ill.). Tubulin (1:250) was used to ensure equal protein loading. Immunoreactivity was assessed and quantified by using a VersaDoc Imaging System (Bio-Rad).

IL-8 = IL-8 secretion by foam cells, ELISA; conditions: for block of adenosine-induced IL-8 increase: antagonist 100 nM
Experimental: (§1) U937 cells were induced to differentiate into macrophages by treatment with phorbol myristate acetate (PMA, 40 nM) for 72 h. Before use oxLDL was dialyzed against 1 L of 0.15 M sodium chloride and 0.3 mM EDTA (pH 7.4) for 12 h at 4° C., then against RPMI 1640 medium (two changes, 1 L/each change) for 24 h. All dialyses were carried out with Pierce Slide-A-Lyzer cassettes (10,000 molecular weight cut-off). After dialysis, lipoproteins were sterilized by passing them through a 0.45 μm (pore-size) filter, then added (50-100 μg/mL, Intracel, Frederick, Md.) to PMA-treated U937 cells and incubated in serum-free RPMI 1640 for 48 h.
(§2) The levels of VEGF and IL-8 protein secreted by the cells in the medium were determined by VEGF and IL-8 ELISA kits (R&D Systems) according to the manufacturer's instructions. The data were presented as mean±SD from three independent experiments.

VEGF = VEGF secretion by foam cells, ELISA; conditions: adenosine 100 μM, 24 h, hypoxic; for effect on adenosine-induced VEGF increase: antagonist 100 nM, U937 derived foam cells
Experimental: as §1, §2

PMA-treated U937 cells = experiment: Foam cell formation, Oil red O stain analysis; conditions: oxLDL 50 μg/mL, adenosine 100 μM, 24 h
Experimental: as §1
Treatment of PMA-differentiated U937 cells with test agents was performed 2 h before addition of oxLDL. After exposition to oxLDL under hypoxia for 24 h, U937 cells were fixed in phosphate buffered saline-buffered 4% paraformaldehyde solution for 15 min and then air dried. Oil red O (in 60% isopropanol) staining was done for 15 min essentially as described previously by Kalayoglu and Byrne (Infect. Immun. 1998, 66, 5067-5072). Cells were viewed under a bright-field microscope in 100× fields using a Nikon's Eclipse E800 microscope. Foam cells were defined as macrophages in which cytoplasm was filled with Oil red O-stainable lipid droplets.

[1] = adenosine 100 μM, U937 derived foam cells, hypoxic

Row | SMILES | block of adenosine-induced IL-8 increase (IL-8; [1]) | effect on adenosine-induced VEGF increase (VEGF) | antagonism of adenosine induced HIF-1α protein accumulation (HIF-1α protein) | further results
1 | CCNC(=O)[C@H]1O[C@@H](n2cnc3c(Nc4ccc(OCC(=O)Nc5ccccc5)cc4)ncnc32)[C@H](O)[C@@H]1O [1-deoxy-1-[6-{4-[(phenylcarbamoyl)-methoxy]phenylamino}-9H-purin-9-yl]-N-ethyl-β-D-ribofuranuronamide] | – | – | – | induction of HIF-1α protein by adenosine receptor agonists (HIF-1α protein; CHA 10, 100 nM, CGS 21680 500, 1000 nM, A2B agonist 10, 100 nM, CI-IB-MECA 10, 100 nM): able to induce HIF-1α protein; IL-8 secretion (IL-8; A2B receptor agonist 1 μM): 142±8 % of IL-8 secretion; EC50 (IL-8; Homo sapiens, U-937, dose-response curve, U937 derived foam cells, hypoxic, read-out: EC50 for stimulation of IL-8 secretion): 58 ± 6 nM
2 | CCCn1c(=O)c2[nH]c(C3CCCC3)nc2n(CCC)c1=O [DPCPX, 1,3-dipropyl-8-cyclopentylxanthine] | not | – | – | –
3 | CCCn1c(=O)c2nc(-c3cc(OCC(=O)Nc4ccc5c(c4)OCO5)nn3C)[nH]c2n(CCC)c1=O [MRE-2029F20, N-1,3-benzodioxol-5-yl-2-{[5-(2,6-dioxo-1,3-dipropyl-2,3,6,9-tetrahydro-1H-purin-8-yl)-1-methyl-1H-pyrazol-3-yl]oxy}acetamide] | blocked | strongly reduced | partially antagonized | block of the effect of the A2B receptor agonist (1 μM) on IL-8 secretion (IL-8; U937 derived foam cells): completely blocked; effect on oxLDL and adenosine induced foam cells formation (Oil red O) (PMA-treated U937 cells; antagonist 100 nM): blocked the foam cells formation; also recorded: inhibition of foam cell formation
4 | CCCn1cc2c(nc(NC(=O)Nc3ccc(OC)cc3)n3nc(-c4ccco4)nc23)n1 [MRE-3008F20, 5-N-(4-methoxyphenyl-carbamoyl)amino-8-propyl-2-(2furyl)-pyrazolo-[4,3e]-1,2,4-triazolo[1,5-c]pyrimidine] | not | strongly reduced | partially antagonized | effect on oxLDL and adenosine induced foam cells formation (Oil red O) (PMA-treated U937 cells; antagonist 100 nM): blocked the foam cells formation; also recorded: inhibition of foam cell formation
5 | Nc1nc2c(cnn2CCc2ccccc2)c2nc(-c3ccco3)nn12 [SCH 58261] | not | inhibited to lesser extent | partially antagonized | –
6 | COc1ccccc1NC(=O)Nc1nc(-c2cccnc2)nc2ccccc12 [VUF 5574] | – | – | – | effect on oxLDL and adenosine induced foam cells formation (Oil red O) (PMA-treated U937 cells; antagonist 10 nM): blocked the foam cells formation; also recorded: inhibition of foam cell formation
7 | Nc1ncnc2c1ncn2[C@@H]1O[C@H](CO)[C@@H](O)[C@H]1O [adenosine] | – | – | – | increase of VEGF levels (VEGF; supernatant of U937 derived foam cells): 165±10%; increase of IL-8 levels (IL-8; adenosine 100 μM, supernatant of U937 derived foam cells, hypoxic): 158±10%; effect on oxLDL-induced foam cell formation (Oil red O) (PMA-treated U937 cells): increased
